Experimental data taken from patent publication US20080182978A1, “ANTI-NGF ANTIBODIES AND METHODS USING SAME” (RINAT NEUROSCIENCE CORP, priority 2002, published 2008).

What was measured:
Assay type in all cases: in vivo, rat
[1] = system: complete Freund's adjuvant (CFA)-induced chronic arthritis; experiment: CFA arthritis rats, hindpaw weight; details: arthritic rats; E3 1 mg/kg or 911 10 mg/kg i.v. D14+D19, indomethacin 3 mg/kg p.o. over 10 days; D24
Protocol: (§1) On Day 24 (5 days after the last i.v. bolus injection or 24 hours after the last p.o. administration) (after X-rays radiographies), each animal hindpaw (arthritic and non arthritic rats) was weighed and was collected in a labelled polyethylene vial. Tissue samples were frozen in liquid nitrogen and stored at −80° C.
(§2) All results were reported as Mean ±S.E.M. of 10 rats in each group at each time point. Paw volume was expressed in ml calculated from the mean value of the right and left paw volume. Arthritis index was calculated from the sum of the score obtained for each of the 4 paws. The nociceptive response was evaluated by the intensity of the level of vocalization recorded for each animal (mean of 4 values: 2 times/paw) in mV. The percentage inhibition of the nociceptive response was calculated from the mean value of the vehicle-treated arthritic group [(mean value of vehicle-treated arthritic group−mean value of treated arthritic group/mean value of vehicle-treated arthritic group)*100]. Body weight was expressed in grams. Hindpaws (left and right) weight was expressed in grams. Cytokine levels (IL-6, IL-1β, TNF-α and TGF-β1) of each hind paw was expressed in pg/ml. Circulating levels of TGF-β1 was expressed in pg/ml. Radiological index for each parameter (demineralization, erosions, periostal reaction, soft tissue damage, space joint, osteogenesis deformity) and total radiological index (total score) were calculated from the sum of the scores obtained for each parameter. The inter-group significances of the deviations between the values of vehicle-treated group (arthritic rats) and vehicle-treated group (non arthritic rats) were assessed by the Student t test or Mann-Whitney Rank Sum Test when equal variance or normality test failed. The inter-group significances of the deviations between the values of vehicle-treated group (arthritic rats) and E3- and 911- and Indomethacin-treated groups were assessed by the 1-way analysis of variance ANOVA followed by the non-paired Dunnett t test. A probability of P<0.05 was considered as significant. All statistical analysis was performed by the Sigmastat™ software.

[2] = CFA arthritis rats, hematological parameters; details: for effect on blood parameters compared to vehicle-treated arthritic group: E3 1 mg/kg or 911 10 mg/kg i.v. D14+D19, indomethacin 3 mg/kg/day p.o. 10 days; for Hematocrit / Hemoglobin / Platelets / Red blood cells / White blood cells: arthritic rats, E3 1 mg/kg or 911 10 mg/kg i.v. D14+D19, indomethacin 3 mg/kg p.o. over 10 days, D24
Protocol: On Day 24 (after paw volume and arthritis index measurements and test vocalization), under general anaesthesia using isoflurane (in a mixture of oxygen and nitrous oxide), the blood samples (about 800-1000 μl) was collected by capillary action with a micropipette from retroorbital sinus.
Blood collection for hematological parameters (groups 1-2-3-4-5: 50 vials): A part of blood sample was collected in tubes containing K3—EDTA (at least 100 μL). The determination of parameters were performed on the day of the collection and the samples were not stored. The hematological parameters including red blood cells, white blood cells, platelets, hemoglobin, hematocrit were measured with a hematology cell counter (D 24). Some hematological parameters were not measured due to the clotted samples (vehicle-freated non arthritic rat: #10; E3-treated arthritic rats: #59, #67; 911-treated arthritic rats: #16).

[3] = system: IL-6, IL-1β, TNF-α and TGF-β1; experiment: CFA arthritis rats, paw cytokine levels (ELISA); details: D24; for left paw IL-1β level / left paw IL-6 level / left paw TGF-β1 level / left paw TNF-α level / right paw IL-1β level / right paw IL-6 level / right paw TGF-β1 level / right paw TNF-α level: arthritic rats, E3 1 mg/kg or 911 10 mg/kg i.v. D14+D19, indomethacin 3 mg/kg p.o.
Protocol: as §1
Preparation of Joint Homogenates: Frozen Hind Paws were Pulverized Using a Bio-Pulverizer. The powdered hind paws were then placed into a 50 ml conical centrifuge tube containing 3 ml PBS supplemented with 50 μl of anti-protease cocktail and homogenized on ice using Ultra-Turrax homogenizer (50% of the maximal speed). Homogenates were then centrifuged at 2000×g for 15 minutes at 4° C. and supernatants were filtered through 0.2 μm Sartorius filters, aliquoted and stored at −80° C. until use.
Cytokine levels measurement: Cytokine levels of TNF-α (Rat TNF-a ELISA kit, ref. RTA00, Batch 213718, R&D Systems, France), IL-1 Rat […] ELISA kit, ref. RLB00, Batch 212435, R&D Systems, France), IL-6 Rat IL-6 ELISA kit, ref. R6000, Batch 211773, 214008 and 214362, R&D Systems, France), and TGF-β1 Human TGF-β1 ELISA kit, ref. DB100, Batch 212258 and 213610, R&D Systems, France) were determined in duplicate, according to the manufacturer's procedure. Aliquots of hind paw homogenates were stored at −80° C.
as §2

[4] = system: complete Freund's adjuvant (CFA)-induced chronic arthritis; experiment: CFA arthritis rats, X-ray analysis of hindpaws (radiological index); details: for X-ray score: Deformity / X-ray score: Demineralization / X-ray score: Erosions / X-ray score: Periostal reaction / X-ray score: Soft tissue damage / X-ray score: Space joint / X-ray score: osteogenesis: score 0-4
Protocol: On Day 24, after blood collecting the animals were sacrificed and X-ray radiographies (hindpaws) were obtained for assessment of joint lesions. X-ray analysis was focused on articular erosions, articular space, periosteum abnormalities on both hindpaws. All the radiographies were analyzed by looking at seven different items: the soft tissue damage, deformity, demineralization, joint space, erosions, osteogenesis and periostal reaction. For each animal, the first six items were analyzed independently by looking at the worse hind foot. The periostal reaction was analyzed by looking at the tail. For each item, the score goes from 0 (normal) to 4 (maximal damage). Therefore the total score goes from 0 to 28. The radiographic interpretation was done by the same reader without knowing anything about the animals (treated or not treated).
as §2

[5] = indomethacin 3 mg/kg/day p.o. 10 days
[6] = arthritic rats, E3 1 mg/kg or 911 10 mg/kg i.v. D14+D19, indomethacin 3 mg/kg p.o., D24

| Molecule | left hindpaw weight [1] | right hindpaw weight [1] | effect on blood parameters compared to vehicle-treated arthritic group [2] | Hematocrit [2] | Hemoglobin [2] | Platelets [2] | Red blood cells [2] | White blood cells [2] | left paw IL-1β level [3] | left paw IL-6 level [3] | left paw TGF-β1 level [3] | left paw TNF-α level [3] | right paw IL-1β level [3] | right paw IL-6 level [3] | right paw TGF-β1 level [3] | right paw TNF-α level [3] | X-ray score: Deformity [4, 6] | X-ray score: Demineralization [4, 6] | X-ray score: Erosions [4, 6] | X-ray score: Periostal reaction [4, 6] | further results |
| --- | --- | --- | --- | --- | --- | --- | --- | --- | --- | --- | --- | --- | --- | --- | --- | --- | --- | --- | --- | --- | --- |
| COc1ccc2c(c1)c(CC(=O)O)c(C)n2C(=O)c1ccc(Cl)cc1 [Indomethacin, reference compound] | 2.23±0.04 grams | 2.20±0.05 grams | did not affect the blood parameters | 35.0 ± 1.5% | 11.8 ± 0.6 g/dL | 705 ± 111 10^3/mm^3 | 6.93 ± 0.31 10^6/mm^3 | 21.7 ± 2.5 10^3/mm^3 | 4029.1 ± 449.9 pg/mL | 249.7 ± 60.4 pg/mL | 7708.2 ± 293.9 pg/mL | 29.9 ± 3.6 pg/mL | 3884.4 ± 534.4 pg/mL | 295.9 ± 47.8 pg/mL | 7057.4 ± 335.6 pg/mL | 30.6 ± 5.7 pg/mL | 0.4 ± 0.2 | 0.3 ± 0.2 | 0.9 ± 0.2 | 0.7 ± 0.3 | decrease of TGF-β1 level in right paw compared to vehicle-treated arthritic group [3, 5]: about 1.3 times; decrease of X-ray total score in comparison to vehicle-treated arthritic rats [4, 5]: about 10.7; X-ray score: Soft tissue damage [4, 6]: 1.0 ± 0.2; X-ray score: Space joint [4, 6]: 1.0 ± 0.2; X-ray score: osteogenesis [4, 6]: 0.1 ± 0.1 |
| E3: humanized, affinity matured anti-NGF antagonist antibody; variable regions SEQ ID NO:1 and 2; human IgG2a (A330P331 to S330S331), kappa (antibody, V domains shown, human IgG2a constant (A330S/P331S) and kappa constant missing) VH: QVQLQESGPGLVKPSETLSLTCTVSGFSLIGYDLNWIRQPPGKGLEWIGIIWGDGTTDYNSAVKSRVTISKDTSKNQFSLKLSSVTAADTAVYYCARGGYWYATSYYFDYWGQGTLVTVS VL: DIQMTQSPSSLSASVGDRVTITCRASQSISNNLNWYQQKPGKAPKLLIYYTSRFHSGVPSRFSGSGSGTDFTFTISSLQPEDIATYYCQQEHTLPYTFGQGTKLEIKRT | 3.86±0.14 grams | 3.72±0.13 grams | did not affect the blood parameters | 38.5 ± 1.0% | 12.9 ± 0.3 g/dL | 827 ± 77 10^3/mm^3 | 7.74 ± 0.17 10^6/mm^3 | 19.1 ± 1.2 10^3/mm^3 | 5060.0 ± 473.5 pg/mL | 234.4 ± 35.2 pg/mL | 9796.7 ± 491.2 pg/mL | 23.6 ± 2.5 pg/mL | 4853.5 ± 605.0 pg/mL | 214.6 ± 47.2 pg/mL | 9362.7 ± 423.4 pg/mL | 21.5 ± 2.5 pg/mL | 1.8 ± 0.2 | 2.0 ± 0.2 | 2.4 ± 0.3 | 0.8 ± 0.2 | effect on IL-6, IL-1β, TNF-α or TGF-β1 levels in both paws vs vehicle-treated arthritic group ([3]; 1 mg/kg i.v. on D14 and D19): did not affect; X-ray score: Soft tissue damage [4, 6]: 3.3 ± 0.3; X-ray score: Space joint [4, 6]: 2.7 ± 0.2; X-ray score: osteogenesis [4, 6]: 1.2 ± 0.2; X-ray TOTAL score ([4]; score 0-28, arthritic rats, E3 1 mg/kg or 911 10 mg/kg i.v. D14+D19, indomethacin 3 mg/kg p.o., D24): 14.2±1.3 |
